In assay [1] the target is T1, human MetAP2 enzyme (Homo sapiens, UniProt P50579). The assay is described as follows: MetAP2 enzyme assay, enzyme complexed with cobalt ions. The note with it: MetAP2 Co pIC50, MetAP2 enzyme complexed with cobalt ions; Met-AMC substrate at Km.
Assay [2] deals with T1, human MetAP2 enzyme. The assay is described as follows: MetAP2 enzyme assay, enzyme complexed with manganese ions. The note with it: MetAP2 Mn pIC50, MetAP2 enzyme complexed with manganese ions; Met-AMC substrate at Km.

T1 sequence (P50579 whole entry): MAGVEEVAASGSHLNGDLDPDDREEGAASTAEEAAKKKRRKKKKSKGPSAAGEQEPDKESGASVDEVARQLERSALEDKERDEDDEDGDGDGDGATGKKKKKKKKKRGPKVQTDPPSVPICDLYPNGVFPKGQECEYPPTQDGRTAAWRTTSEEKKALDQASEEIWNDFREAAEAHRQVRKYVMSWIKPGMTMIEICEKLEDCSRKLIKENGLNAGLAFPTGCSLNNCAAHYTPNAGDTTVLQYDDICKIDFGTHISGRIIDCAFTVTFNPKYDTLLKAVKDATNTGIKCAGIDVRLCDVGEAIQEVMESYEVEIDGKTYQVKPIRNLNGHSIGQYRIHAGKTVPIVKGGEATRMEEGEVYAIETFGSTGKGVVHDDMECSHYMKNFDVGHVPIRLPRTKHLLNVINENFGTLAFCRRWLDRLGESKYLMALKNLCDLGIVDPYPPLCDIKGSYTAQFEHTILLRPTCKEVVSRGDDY

For orientation: IC50 means the concentration that inhibits the measured activity by half. Regarding `Cc1nn(CC(=O)N(C)C)c(C)c1-c1cc(C(F)(F)F)cc2[nH]ncc12` [Example 363, 2-(3,5-dimethyl-4-(6-(trifluoromethyl)-1H-indazol-4-yl)-1H-pyrazol-1-yl)-N,N-dimethylacetamide], the 50% inhibitory concentration (IC50) against human MetAP2 enzyme [1] was 79.4 nM; at human MetAP2 enzyme [2], 15.8 nM.
The like results for `COc1ncc(-c2cc(C(F)(F)F)cc3[nH]ncc23)cc1C(=O)N1CCN(C)CC1` [Example 288, (2-methoxy-5-(6-(trifluoromethyl)-1H-indazol-4-yl)pyridin-3-yl)(4-methylpiperazin-1-yl)methanone] were, in that order, 31.6 nM and 5.01 nM.
As to `FC(F)(F)c1cc(-c2ccc3[nH]ncc3c2)c2cn[nH]c2c1` [Example 236, 6-(trifluoromethyl)-1H,1′H-4,5′-biindazole], the IC50 is 63.1 nM at human MetAP2 enzyme [1] and 6.31 nM against human MetAP2 enzyme [2].
The like results for `CNC(=O)c1ccc(-c2cc(C(F)(F)F)cc3[nH]ncc23)cc1` [Example 117, N-methyl-4-(6-(trifluoromethyl)-1H-indazol-4-yl)benzamide] were, in that order, 15.8 nM and 3.16 nM.
The matching figures for `CCn1cc(-c2cc(C(F)(F)F)cc3[nH]ncc23)c(C)n1` [Example 171, 4-(1-ethyl-3-methyl-1H-pyrazol-4-yl)-6-(trifluoromethyl)-1H-indazole]: 63.1 nM and 5.01 nM.
The like results for `O=C(O)c1ncncc1-c1cc(C(F)(F)F)cc2[nH]ncc12` [Example 192, 5-(6-(trifluoromethyl)-1H-indazol-4-yl)pyrimidine-4-carboxylic acid] were, in that order, 5010 nM and 100 nM.
Regarding `O=C(c1cc(-c2cc(C(F)(F)F)cc3[nH]ncc23)ccn1)N1CC(O)C1` [Example 385, (3-hydroxyazetidin-1-yl)(4-(6-(trifluoromethyl)-1H-indazol-4-yl)pyridin-2-yl)methanone], the IC50 against human MetAP2 enzyme [1] was 79.4 nM; against human MetAP2 enzyme [2] it was 5.01 nM.
The like results for `CN(C)C(=O)c1ccc(-c2cc(C(F)(F)F)cc3[nH]ncc23)cc1` [Example 119, N,N-dimethyl-4-(6-(trifluoromethyl)-1H-indazol-4-yl)benzamide] were, in that order, 100 nM and 7.94 nM.
As for `N#Cc1cnc2c(-c3cc(C(F)(F)F)cc4[nH]ncc34)cnn2c1N` [Example 159, 7-amino-3-(6-(trifluoromethyl)-1H-indazol-4-yl)pyrazolo[1,5-a]pyrimidine-6-carbonitrile], the IC50 against human MetAP2 enzyme [1] was 1580 nM; against human MetAP2 enzyme [2], 158 nM.
The like results for `NS(=O)(=O)c1cc(F)c(-c2cc(C(F)(F)F)cc3[nH]ncc23)cc1F` [Example 376, 2,5-difluoro-4-(6-(trifluoromethyl)-1H-indazol-4-yl)benzenesulfonamide] were, in that order, 50.1 nM and 5.01 nM.
The like results for `Cc1ncc(-c2cc(C(F)(F)F)cc3[nH]ncc23)c2cc[nH]c12` [Example 292, 4-(7-methyl-1H-pyrrolo[2,3-c]pyridin-4-yl)-6-(trifluoromethyl)-1H-indazole] were, in that order, 39.8 nM and 6.31 nM.
For `C[C@H](O)CNC(=O)c1cc(-c2cc(C(F)(F)F)cc3[nH]ncc23)c(=O)n(C)c1` [Example 359, (S)—N-(2-hydroxypropyl)-1-methyl-6-oxo-5-(6-(trifluoromethyl)-1H-indazol-4-yl)-1,6-dihydropyridine-3-carboxamide], the IC50 on human MetAP2 enzyme [1] is 501 nM; against human MetAP2 enzyme [2], 10 nM.
Consider `Cc1cc(S(N)(=O)=O)ccc1-c1cc(C(F)(F)F)cc2[nH]ncc12` [Example 186, 3-methyl-4-(6-(trifluoromethyl)-1H-indazol-4-yl)benzenesulfonamide], for which the IC50 against human MetAP2 enzyme [1] was 20 nM; against human MetAP2 enzyme [2] it was 7.94 nM.
The matching figures for `Cc1nc(N)ccc1-c1cc(C(F)(F)F)cc2[nH]ncc12` [Example 255, 6-methyl-5-(6-(trifluoromethyl)-1H-indazol-4-yl)pyridin-2-amine]: 25.1 nM and 7.94 nM.
The like results for `COc1ccc(C(=O)N2CCN(C)C(=O)C2)cc1-c1cc(C(F)(F)F)cc2[nH]ncc12` [Example 325, 4-(4-methoxy-3-(6-(trifluoromethyl)-1H-indazol-4-yl)benzoyl)-1-methylpiperazin-2-one] were, in that order, 63.1 nM and 25.1 nM.
`NC(=O)Cn1cc(-c2cc(C(F)(F)F)cc3[nH]ncc23)cn1` [Example 264, 2-(4-(6-(trifluoromethyl)-1H-indazol-4-yl)-1H-pyrazol-1-yl)acetamide]: the IC50 against human MetAP2 enzyme [1] is 100 nM; at human MetAP2 enzyme [2], 6.31 nM.
The like results for `COc1ccc(OC)c(-c2cc(C(F)(F)F)cc3[nH]ncc23)c1` [Example 86, 4-(2,5-dimethoxyphenyl)-6-(trifluoromethyl)-1H-indazole] were, in that order, 15.8 nM and 3.16 nM.
The like results for `Cc1nn(CC(=O)NC(C)C)c(C)c1-c1cc(C(F)(F)F)cc2[nH]ncc12` [Example 352, 2-(3,5-dimethyl-4-(6-(trifluoromethyl)-1H-indazol-4-yl)-1H-pyrazol-1-yl)-N-isopropylacetamide] were, in that order, 39.8 nM and 20 nM.
The like results for `O=c1[nH]c2cc(-c3cc(C(F)(F)F)cc4[nH]ncc34)cnc2[nH]1` [Example 241, 6-(6-(trifluoromethyl)-1H-indazol-4-yl)-1H-imidazo[4,5-b]pyridin-2(3H)-one] were, in that order, 15.8 nM and 2 nM.
As for `Cc1[nH]c(=O)[nH]c(=O)c1-c1cc(C(F)(F)F)cc2[nH]ncc12` [Example 204, 6-methyl-5-(6-(trifluoromethyl)-1H-indazol-4-yl)pyrimidine-2,4(1H,3H)-dione], the IC50 against human MetAP2 enzyme [1] is 794 nM; at human MetAP2 enzyme [2], 15.8 nM.
The matching figures for `O=C(NCCO)c1cncc(-c2cc(C(F)(F)F)cc3[nH]ncc23)c1` [Example 290, N-(2-hydroxyethyl)-5-(6-(trifluoromethyl)-1H-indazol-4-yl)nicotinamide]: 251 nM and 7.94 nM.
On to `Cn1ncc2ccc(-c3cc(C(F)(F)F)cc4[nH]ncc34)cc21` [Example 24, 1′-methyl-6-(trifluoromethyl)-1H,1′H-4,6′-biindazole], for which the figures for the IC50 at human MetAP2 enzyme [1] and on human MetAP2 enzyme [2] were 31.6 nM and 12.6 nM, respectively.
The matching figures for `Cn1c(-c2cc(C(F)(F)F)cc3[nH]ncc23)nc2c1c(=O)[nH]c(=O)n2C` [Example 167, 3,7-dimethyl-8-(6-(trifluoromethyl)-1H-indazol-4-yl)-1H-purine-2,6(3H,7H)-dione]: 158 nM and 3.98 nM.
The matching figures for `Cc1c(-c2cc(C(F)(F)F)cc3[nH]ncc23)ccc(=O)n1Cc1ccccn1` [Example 407, 6-methyl-1-(pyridin-2-ylmethyl)-5-(6-(trifluoromethyl)-1H-indazol-4-yl)pyridin-2(1H)-one]: 79.4 nM and 12.6 nM.
Consider `CN(C)S(=O)(=O)c1cccc(-c2cc(C(F)(F)F)cc3[nH]ncc23)c1` [Example 108, N,N-dimethyl-3-(6-(trifluoromethyl)-1H-indazol-4-yl)benzenesulfonamide], for which the IC50 is 79.4 nM on human MetAP2 enzyme [1] and 12.6 nM against human MetAP2 enzyme [2].
The like results for `NC(=O)c1cc(F)ccc1-c1cc(C(F)(F)F)cc2[nH]ncc12` [Example 203, 5-fluoro-2-(6-(trifluoromethyl)-1H-indazol-4-yl)benzamide] were, in that order, 3980 nM and 79.4 nM.
The matching figures for `NC(=O)c1cc(-c2cc(C(F)(F)F)cc3[nH]ncc23)ccc1F` [Example 110, 2-fluoro-5-(6-(trifluoromethyl)-1H-indazol-4-yl)benzamide]: 63.1 nM and 3.98 nM.
Take `COc1nccc(C)c1-c1cc(C(F)(F)F)cc2[nH]ncc12` [Example 123, 4-(2-methoxy-4-methylpyridin-3-yl)-6-(trifluoromethyl)-1H-indazole]: the IC50 at human MetAP2 enzyme [1] was 63.1 nM; against human MetAP2 enzyme [2], 31.6 nM.
`CN(C)C(=O)c1ccccc1-c1cc(C(F)(F)F)cc2[nH]ncc12` [Example 47, N,N-dimethyl-2-(6-(trifluoromethyl)-1H-indazol-4-yl)benzamide]: the IC50 against human MetAP2 enzyme [1] was 501 nM; at human MetAP2 enzyme [2] it was 50.1 nM.
The like results for `Cc1ncc(-c2cc(C(F)(F)F)cc3[nH]ncc23)n1C` [Example 146, 4-(1,2-dimethyl-1H-imidazol-5-yl)-6-(trifluoromethyl)-1H-indazole] were, in that order, 794 nM and 100 nM.
The matching figures for `CNC(=O)c1ccc(F)c(-c2cc(C(F)(F)F)cc3[nH]ncc23)c1` [Example 114, 4-fluoro-N-methyl-3-(6-(trifluoromethyl)-1H-indazol-4-yl)benzamide]: 50.1 nM and 6.31 nM.
The matching figures for `FC(F)(F)c1cc(-c2cccc3c2OCO3)c2cn[nH]c2c1` [Example 27, 4-(benzo[d][1,3]dioxol-4-yl)-6-(trifluoromethyl)-1H-indazole]: 126 nM and 15.8 nM.
Consider `O=C(NCCO)c1ccc(-c2cc(C(F)(F)F)cc3[nH]ncc23)cc1F` [Example 109, 2-fluoro-N-(2-hydroxyethyl)-4-(6-(trifluoromethyl)-1H-indazol-4-yl)benzamide], for which the IC50 at human MetAP2 enzyme [1] was 50.1 nM; at human MetAP2 enzyme [2], 3.16 nM.
The matching figures for `Cc1c(-c2cc(C(F)(F)F)cc3[nH]ncc23)ccc2ncnn12` [Example 393, 5-methyl-6-(6-(trifluoromethyl)-1H-indazol-4-yl)-[1,2,4]triazolo[1,5-a]pyridine]: 50.1 nM and 6.31 nM.
The matching figures for `Cc1nn(C)c(C(N)=O)c1-c1cc(C(F)(F)F)cc2[nH]ncc12` [Example 327, 1,3-dimethyl-4-(6-(trifluoromethyl)-1H-indazol-4-yl)-1H-pyrazole-5-carboxamide]: 631 nM and 63.1 nM.
The matching figures for `FC(F)(F)c1cc(-c2cccc3cc[nH]c23)c2cn[nH]c2c1` [Example 76, 4-(1H-indol-7-yl)-6-(trifluoromethyl)-1H-indazole]: 398 nM and 39.8 nM.

The values above are taken from patent US9434743B2, “Indazole derivatives” (TAKEDA PHARMACEUTICAL COMPANY LIMITED, priority 2012, dated 2016).
